From US20020082224A1, “NON-IMMUNOGENIC PRODRUGS AND SELECTABLE MARKERS FOR USE IN GENE THERAPY” (priority 1997, published 2002)

Columns and labels:
[1] = test system: HT1080 cells; assay: Tumor growth in nude mice inoculated with parental HT1080 cells, dosed with EP; type: in vivo, nude mice (Balb/c); conditions: s.c. inoculation of 5e5 cells, EP dosed 2-10 days after inoculation
Description: (§1) hPLAP is able to convert the prodrugs, mitomycin phosphate (MOP) and etoposide phosphate (EP), into an active mitomycin C derivative, mitomycin alcohol, and etoposide. 5e5 HT1080 cells or HT/hPLAP cells (HT1080 cells stably expressing hPLAP) are inoculated subcutaneously into nude mice (Balb/c). Tumor development occurs in 7-14 days. Etoposide phosphate is prepared by the method of […] et al., Cancer Res. 49:5789-92, 1988, or obtained from a pharmacy (e.g., manufactured by Bristol-Myers Squibb). Animals are dosed with EP as described ([…] et al., 1988) 2-10 days after inoculation with cells.

[2] = test system: HT/hPLAP cells (HT1080 cells stably expressing hPLAP); assay: Tumor growth in nude mice inoculated with HT/hPLAP cells, dosed with EP; type: in vivo, nude mice (Balb/c)
Description: as §1

[3] = test system: acute myeloblastic leukemia (AML); conditions: as a single agent; % of patients; cited from earlier work
[4] = cited from earlier work

For COc1cc([C@@H]2c3cc4c(cc3[C@@H](O[C@@H]3O[C@@H]5CO[C@@H](C)O[C@H]5[C@H](O)[C@H]3O)[C@H]3COC(=O)[C@H]23)OCO4)cc(OC)c1OP(=O)(O)O [EP, etoposide phosphate], the “effect on tumors from parental HT1080 cells” value [1] was “resistant to the effect of EP”, the “specificity of EP effect, HT1080 cells in one flank and HT/hPLAP cells in the contralateral flank” value ([2]; both cell types in the same animal) was “specific for cells expressing HPLAP” and the “effect on tumor growth of HT/hPLAP cells” value ([2]; s.c. inoculation of 5e5 cells, EP dosed 2-10 days after inoculation) was “dose-dependent reduction in tumor growth”.
For Nc1ccn([C@@H]2O[C@H](CO)[C@@H](O)[C@@H]2O)c(=O)n1 [ara-C, cytosine arabinoside], the “remission induced in patients with acute myeloblastic leukemia (AML)” value [3] is given as 50%, the “concentrations in the CSF relative to plasma” value ([4]; IV infusion, after 2 hours of continuous infusion) is given as 50% and the Plasma half life ([4]; due to rapid deamination) is given as “less than 20 minutes”.
